Measurements as given in PubChem BioAssay AID2060507 (Molecular Pharmacology Branch, DTP, NCI, 2025).

Test system: 519858-162-T-J1-PDC complex spheroid viability
Assay: Anticancer human tumor 519858-162-T-J1-PDC patient-derived colon adenocarcinoma cell line growth inhibition [GQUAD]
Details: for IC50: curve of first compound; for viability, T/C: stronger effect = lower value
Summary of the method: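 Tumor cells were grown as complex spheroids with HUVEC endothelial cells and mesenchymal stem cells as stroma. G-quadruplex stabilizers were combined with targeted agents over half-log dilutions from near the clinical Cmax, or from 10 microM.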

[1] = second compound 0.0316 µM, first compound 0.0316 µM
[2] = second compound 0.0316 µM, first compound 0.1 µM
[3] = second compound 0.0316 µM, first compound 0.316 µM
[4] = second compound 0.0316 µM, first compound 1 µM
[5] = second compound 0.0316 µM, first compound 3.16 µM
[6] = second compound 0.0316 µM, first compound 10 µM
[7] = second compound 0.1 µM, first compound 0.0316 µM
[8] = second compound 0.1 µM, first compound 0.1 µM
[9] = second compound 0.1 µM, first compound 0.316 µM
[10] = second compound 0.1 µM, first compound 1 µM
[11] = second compound 0.1 µM, first compound 3.16 µM
[12] = second compound 0.1 µM, first compound 10 µM
[13] = second compound 0.316 µM, first compound 0.0316 µM
[14] = second compound 0.316 µM, first compound 0.1 µM
[15] = second compound 0.316 µM, first compound 0.316 µM
[16] = second compound 0.316 µM, first compound 1 µM
[17] = second compound 0.316 µM, first compound 3.16 µM
[18] = second compound 0.316 µM, first compound 10 µM
[19] = second compound 1 µM, first compound 0.0316 µM
[20] = second compound 1 µM, first compound 0.1 µM
[21] = second compound 1 µM, first compound 0.316 µM
[22] = second compound 1 µM, first compound 1 µM
[23] = second compound 1 µM, first compound 3.16 µM
[24] = second compound 1 µM, first compound 10 µM
[25] = second compound 3.16 µM, first compound 0.0316 µM
[26] = second compound 3.16 µM, first compound 0.1 µM
[27] = second compound 3.16 µM, first compound 0.316 µM
[28] = second compound 3.16 µM, first compound 1 µM
[29] = second compound 3.16 µM, first compound 3.16 µM
[30] = second compound 3.16 µM, first compound 10 µM
[31] = second compound 10 µM, first compound 0.0316 µM
[32] = second compound 10 µM, first compound 0.1 µM
[33] = second compound 10 µM, first compound 0.316 µM
[34] = second compound 10 µM, first compound 1 µM
[35] = second compound 10 µM, first compound 3.16 µM
[36] = second compound 10 µM, first compound 10 µM
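Also: spheroids exposed to compounds for 7 days.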
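For viability, T/C in this document: 100% = DMSO vehicle control viability.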

COc1cccc2c1C(=O)c1c(O)c3c(c(O)c1C2=O)CC(O)(C(=O)CO)CC3OC1CC(N)C(O)C(C)O1 (centres undefined) + CN(C)c1ccc(Nc2c3ccc(NC(=O)CCN4CCCC4)cc3nc3cc(NC(=O)CCN4CCCC4)ccc23)cc1
IC50 (second compound 0.0316 µM): > 10 µM | IC50 (second compound 0.1 µM): > 10 µM | IC50 (second compound 0.316 µM): > 10 µM | IC50 (second compound 1 µM): 8.56 µM | IC50 (second compound 3.16 µM): > 10 µM | IC50 (second compound 10 µM): > 10 µM | viability, T/C [1]: 80.7% | viability, T/C [2]: 124% | viability, T/C [3]: 97.7% | viability, T/C [4]: 72% | viability, T/C [5]: 71% | viability, T/C [6]: 58.1% | viability, T/C [7]: 90.6% | viability, T/C [8]: 84.6% | viability, T/C [9]: 104% | viability, T/C [10]: 80.8% | viability, T/C [11]: 60.5% | viability, T/C [12]: 60.1% | viability, T/C [13]: 88.4% | viability, T/C [14]: 58.5% | viability, T/C [15]: 79.7% | viability, T/C [16]: 65.1% | viability, T/C [17]: 62.2% | viability, T/C [18]: 75.5% | viability, T/C [19]: 85.5% | viability, T/C [20]: 71.9% | viability, T/C [21]: 56.4% | viability, T/C [22]: 100% | viability, T/C [23]: 65.2% | viability, T/C [24]: 47.1% | viability, T/C [25]: 74.9% | viability, T/C [26]: 60.6% | viability, T/C [27]: 80% | viability, T/C [28]: 66.8% | viability, T/C [29]: 63.2% | viability, T/C [30]: 55.8% | viability, T/C [31]: 57.1% | viability, T/C [32]: 62.9% | viability, T/C [33]: 57.1% | viability, T/C [34]: 60.1% | viability, T/C [35]: 50.3% | viability, T/C [36]: 68.8%

Cc1cccc(N(C)C(=O)C2C(O)CCN2c2nc(C)cc(C(F)(F)F)c2C#N)c1 (centres undefined) + CN(C)c1ccc(Nc2c3ccc(NC(=O)CCN4CCCC4)cc3nc3cc(NC(=O)CCN4CCCC4)ccc23)cc1
IC50 (second compound 0.0316 µM): > 10 µM | IC50 (second compound 0.1 µM): > 10 µM | IC50 (second compound 0.316 µM): > 10 µM | IC50 (second compound 1 µM): > 10 µM | IC50 (second compound 3.16 µM): > 10 µM | IC50 (second compound 10 µM): > 10 µM | viability, T/C [1]: 86.1% | viability, T/C [2]: 126% | viability, T/C [3]: 96.4% | viability, T/C [4]: 95.2% | viability, T/C [5]: 91.1% | viability, T/C [6]: 92.9% | viability, T/C [7]: 105% | viability, T/C [8]: 78.6% | viability, T/C [9]: 109% | viability, T/C [10]: 77.2% | viability, T/C [11]: 68.1% | viability, T/C [12]: 83.8% | viability, T/C [13]: 111% | viability, T/C [14]: 87.7% | viability, T/C [15]: 120% | viability, T/C [16]: 61.4% | viability, T/C [17]: 75% | viability, T/C [18]: 85.5% | viability, T/C [19]: 102% | viability, T/C [20]: 84.6% | viability, T/C [21]: 109% | viability, T/C [22]: 73.1% | viability, T/C [23]: 88.8% | viability, T/C [24]: 73.3% | viability, T/C [25]: 63.9% | viability, T/C [26]: 76.2% | viability, T/C [27]: 103% | viability, T/C [28]: 91.8% | viability, T/C [29]: 78.5% | viability, T/C [30]: 62.3% | viability, T/C [31]: 71.2% | viability, T/C [32]: 78.8% | viability, T/C [33]: 57.9% | viability, T/C [34]: 90.7% | viability, T/C [35]: 65.2% | viability, T/C [36]: 88.3%
